Assay results: ChEMBL document CHEMBL3864150, “Synthesis and cytotoxicity study of novel 3-(triazolyl)coumarins based fluorescent scaffolds” (Bioorg Med Chem Lett, 2016); call rule not given here
Values belong to the compound of their own block, whether it stands above or below them.

Key:
[1] = Cytotoxicity against human MRC5 cells after 24 hrs by MTT assay
[2] = Cytotoxicity against human MCF7 cells after 24 hrs by MTT assay; assay type: functional, cell-based; conditions: MCF7, 24 h
[3] = Cytotoxicity against human HeLa cells after 24 hrs by MTT assay; assay type: functional, cell-based
[4] = test system: MCF7; assay: Selectivity factor, ratio of IC50 for human MRC5 cells to IC50 for human MCF7 cells
[5] = test system: HeLa; assay: Selectivity factor, ratio of IC50 for human MRC5 cells to IC50 for human HeLa cells
[6] = Drug uptake in human MCF7 cells at 20 uM after 2 hrs by fluorescence microscopy; assay type: ADME, cell-based; conditions: mcf7, 2 h

Compound: COc1cccc2cc(-n3nnc4c3-c3ccccc3N(C(=O)CCN)Cc3ccccc3-4)c(=O)oc12
IC50 at 24 h [1]: 92.8 µM
IC50 [2]: 21.9 µM
IC50 [3]: 26.2 µM
Ratio IC50 [4]: 4.24
Ratio IC50 [5]: 3.54

Compound: [N-]=[N+]=Nc1cc2cc(Br)ccc2oc1=O
IC50 at 24 h [1]: 70.4 µM
IC50 [2]: 23.7 µM
IC50 [3]: 28.3 µM
Ratio IC50 [4]: 2.97
Ratio IC50 [5]: 2.48

Compound: COc1cccc2cc(N=[N+]=[N-])c(=O)oc12
IC50 at 24 h [1]: 58.7 µM
IC50 [2]: 31.5 µM
IC50 [3]: 36.4 µM
Ratio IC50 [4]: 1.85
Ratio IC50 [5]: 1.61

Compound: [N-]=[N+]=Nc1cc2ccc(O)cc2oc1=O
IC50 at 24 h [1]: 62.7 µM
IC50 [2]: 38.4 µM
IC50 [3]: 41.6 µM
Ratio IC50 [4]: 1.63
Ratio IC50 [5]: 1.5

Compound: [N-]=[N+]=Nc1cc2ccccc2oc1=O
IC50 at 24 h [1]: 70.2 µM
IC50 [2]: 26.7 µM
IC50 [3]: 29.6 µM
Ratio IC50 [4]: 2.63
Ratio IC50 [5]: 2.37

Compound: NCCC(=O)N1Cc2ccccc2-c2nnn(-c3cc4cc(Br)ccc4oc3=O)c2-c2ccccc21
IC50 at 24 h [1]: 100 µM
IC50 [2]: 10.7 µM
IC50 [3]: 18.2 µM
Ratio IC50 [4]: 9.4
Ratio IC50 [5]: 5.49

Compound: NCCC(=O)N1Cc2ccccc2-c2nnn(-c3cc4ccc(OCCBr)cc4oc3=O)c2-c2ccccc21
IC50 at 24 h [1]: 121 µM
IC50 [2]: 18.5 µM
IC50 [3]: 19.5 µM
Ratio IC50 [4]: 6.52
Ratio IC50 [5]: 6.19

Drug uptake [6]: Active
Compound: NCCC(=O)N1Cc2ccccc2-c2nnn(-c3cc4cc(Cl)cc(Cl)c4oc3=O)c2-c2ccccc21
IC50 at 24 h [1]: 185 µM
IC50 [2]: 9.83 µM
IC50 [3]: 17.5 µM
Ratio IC50 [4]: 18.84
Ratio IC50 [5]: 10.58

Drug uptake [6]: Active
Compound: NCCC(=O)N1Cc2ccccc2-c2nnn(-c3cc4ccc(O)cc4oc3=O)c2-c2ccccc21
IC50 at 24 h [1]: 90.2 µM
IC50 [2]: 18.4 µM
IC50 [3]: 21.1 µM
Ratio IC50 [4]: 4.9
Ratio IC50 [5]: 4.27

Compound: [N-]=[N+]=Nc1cc2cc(Cl)cc(Cl)c2oc1=O
IC50 at 24 h [1]: 67.2 µM
IC50 [2]: 18.6 µM
IC50 [3]: 27.6 µM
Ratio IC50 [4]: 3.6
Ratio IC50 [5]: 2.43

Compound: NCCC(=O)N1Cc2ccccc2-c2nnn(-c3cc4ccccc4oc3=O)c2-c2ccccc21
IC50 at 24 h [1]: 110 µM
IC50 [2]: 12.7 µM
IC50 [3]: 19.8 µM
Ratio IC50 [4]: 8.68
Ratio IC50 [5]: 5.55

Compound: COc1cccc2c1C(=O)c1c(O)c3c(c(O)c1C2=O)C[C@@](O)(C(=O)CO)C[C@@H]3O[C@H]1C[C@H](N)[C@H](O)[C@H](C)O1 [DOXORUBICIN]
IC50 at 24 h [1]: 70.6 µM
IC50 [3]: 5.2 µM
